Assay results as given in ChEMBL document CHEMBL5724914, “Linking interpersonal differences in gut microbiota composition and drug biotransformation activity” (2024).

What was measured:
[1] = (§1) The drug is tested on WLS-082 corresponding to human gut metagenome with ENA study accession number: PRJEB37062 and ENA sample accession number: ERS12561751 for biotransformation under anaerobic condition. The drug concentrations were measured over 9 timepoints collected between 0 and 24 hours of incubation by liquid-chromatography-coupled mass spectrometry (LC–MS); details: 2 µM
[2] = as §1, with “Z-027” for “WLS-082”, “to” for “to human gut”, “ERS12561826” for “ERS12561751”; details: 2 µM
[3] = human gut metagenome, 24 h, 2 µM
[4] = human gut metagenome, 24 h, 2 µM; remark: listed apart in the source
[5] = human gut metagenome, 24 h, 2 µM; remark: listed apart in the source
[6] = human gut metagenome, 24 h, 2 µM; remark: listed apart in the source
[7] = as §1, with “WLS-240” for “WLS-082”, “ERS12561773” for “ERS12561751”; details: 2 µM
[8] = human gut metagenome, 24 h, 2 µM; remark: listed apart in the source
[9] = as §1, with “Z-024” for “WLS-082”, “pig” for “human”, “ERS12561823” for “ERS12561751”; details: 2 µM
[10] = as §1, with “WLS-098” for “WLS-082”, “ERS12561754” for “ERS12561751”; details: 2 µM
[11] = as §1, with “Z-016” for “WLS-082”, “mouse” for “human”, “ERS12561815” for “ERS12561751”; details: 2 µM
[12] = human gut metagenome, 24 h, 2 µM; remark: listed apart in the source
[13] = as §1, with “WLS-027” for “WLS-082”, “ERS12561744” for “ERS12561751”; details: 2 µM
[14] = human gut metagenome, 24 h, 2 µM; remark: listed apart in the source
[15] = human gut metagenome, 24 h, 2 µM; remark: listed apart in the source
[16] = as §1, with “WLS-073” for “WLS-082”, “ERS12561749” for “ERS12561751”; details: 2 µM
[17] = as §1, with “WLS-069” for “WLS-082”, “ERS12561748” for “ERS12561751”; details: 2 µM
[18] = as §1, with “Z-028” for “WLS-082”, “mouse” for “human”, “ERS12561827” for “ERS12561751”; details: 2 µM
[19] = as §1, with “Z-022” for “WLS-082”, “mouse” for “human”, “ERS12561821” for “ERS12561751”; details: 2 µM
[20] = as §1, with “WLS-052” for “WLS-082”, “ERS12561747” for “ERS12561751”; details: 2 µM
Also: call rule not given here.

| Bacterial Biotransformation [1] | Bacterial Biotransformation [2] | Bacterial Biotransformation [3] | Bacterial Biotransformation [4] | Bacterial Biotransformation [5] | Bacterial Biotransformation [6] | Bacterial Biotransformation [7] | Bacterial Biotransformation [8] | Bacterial Biotransformation [9] | Bacterial Biotransformation [10] | Bacterial Biotransformation [11] | Bacterial Biotransformation [12] | Bacterial Biotransformation [13] | Bacterial Biotransformation [14] | Bacterial Biotransformation [15] | Bacterial Biotransformation [16] | Bacterial Biotransformation [17] | Bacterial Biotransformation [18] | Bacterial Biotransformation [19] | Bacterial Biotransformation [20] | SMILES |
| --- | --- | --- | --- | --- | --- | --- | --- | --- | --- | --- | --- | --- | --- | --- | --- | --- | --- | --- | --- | --- |
| Compound NOT metabolized | Compound NOT metabolized | Compound NOT metabolized | Compound NOT metabolized | Compound NOT metabolized | Compound NOT metabolized | Compound metabolized | Compound NOT metabolized | Compound NOT metabolized | Compound metabolized | Compound NOT metabolized | Compound NOT metabolized | Compound NOT metabolized | Compound NOT metabolized | Compound metabolized | Compound NOT metabolized | Compound NOT metabolized | Compound NOT metabolized | Compound NOT metabolized | Compound NOT metabolized | CCN1CCCC1CNC(=O)c1cc(S(=O)(=O)CC)c(N)cc1OC (stereo not given) [AMISULPRIDE] |
| Compound NOT metabolized | Compound NOT metabolized | Compound NOT metabolized | Compound NOT metabolized | Compound NOT metabolized | Compound NOT metabolized | Compound NOT metabolized | Compound NOT metabolized | Compound NOT metabolized | Compound metabolized | Compound NOT metabolized | Compound NOT metabolized | Compound NOT metabolized | Compound NOT metabolized | Compound metabolized | Compound NOT metabolized | Compound metabolized | Compound NOT metabolized | Compound NOT metabolized | Compound NOT metabolized | CC(C)NCC(O)COc1ccc(CC(N)=O)cc1 (stereo not given) [ATENOLOL] |
| Compound metabolized | Compound NOT metabolized | Compound metabolized | Compound metabolized | Compound metabolized | Compound metabolized | Compound metabolized | Compound metabolized | Compound NOT metabolized | Compound metabolized | Compound metabolized | Compound metabolized | Compound metabolized | Compound metabolized | Compound metabolized | Compound metabolized | Compound metabolized | Compound metabolized | Compound NOT metabolized | Compound metabolized | CC(=O)OCC(=O)[C@@]1(OC(C)=O)[C@@H](C)C[C@H]2[C@@H]3C[C@H](F)C4=CC(=O)C=C[C@]4(C)[C@@]3(F)[C@@H](O)C[C@@]21C [DIFLORASONE DIACETATE] |
| Compound NOT metabolized | Compound NOT metabolized | Compound NOT metabolized | Compound metabolized | Compound metabolized | Compound metabolized | Compound metabolized | Compound NOT metabolized | Compound metabolized | Compound metabolized | Compound NOT metabolized | Compound NOT metabolized | Compound metabolized | Compound NOT metabolized | Compound metabolized | Compound metabolized | Compound metabolized | Compound NOT metabolized | Compound NOT metabolized | Compound NOT metabolized | CN(C)CCC=C1c2ccccc2COc2ccccc21 [DOXEPIN] |
| Compound metabolized | Compound NOT metabolized | Compound metabolized | Compound metabolized | Compound metabolized | Compound metabolized | Compound metabolized | Compound NOT metabolized | Compound NOT metabolized | Compound NOT metabolized | Compound metabolized | Compound NOT metabolized | Compound metabolized | Compound NOT metabolized | Compound metabolized | Compound metabolized | Compound metabolized | Compound NOT metabolized | Compound NOT metabolized | Compound metabolized | C[C@]12CCC(=O)C=C1[C@@H]1C[C@@H]1[C@H]1[C@@H]3[C@@H]4C[C@@H]4[C@@]4(CCC(=O)O4)[C@@]3(C)CC[C@@H]12 [DROSPIRENONE] |
| Compound NOT metabolized | Compound NOT metabolized | Compound NOT metabolized | Compound NOT metabolized | Compound NOT metabolized | Compound NOT metabolized | Compound NOT metabolized | Compound NOT metabolized | Compound NOT metabolized | Compound NOT metabolized | Compound NOT metabolized | Compound NOT metabolized | Compound NOT metabolized | Compound NOT metabolized | Compound NOT metabolized | Compound NOT metabolized | Compound NOT metabolized | Compound NOT metabolized | Compound NOT metabolized | Compound NOT metabolized | N=C(N)NC(=O)Cc1c(Cl)cccc1Cl [GUANFACINE] |
| Compound NOT metabolized | Compound NOT metabolized | Compound NOT metabolized | Compound NOT metabolized | Compound NOT metabolized | Compound NOT metabolized | Compound NOT metabolized | Compound NOT metabolized | Compound NOT metabolized | Compound metabolized | Compound NOT metabolized | Compound NOT metabolized | Compound NOT metabolized | Compound NOT metabolized | Compound metabolized | Compound NOT metabolized | Compound NOT metabolized | Compound NOT metabolized | Compound NOT metabolized | Compound NOT metabolized | Nc1nc(N)nc(-c2cc(Cl)ccc2Cl)n1.O=C(O)/C=C\C(=O)O [IRSOGLADINE MALEATE] |

| SMILES | Bacterial Biotransformation [1] | Bacterial Biotransformation [2] | Bacterial Biotransformation [3] | Bacterial Biotransformation [4] | Bacterial Biotransformation [5] | Bacterial Biotransformation [6] | Bacterial Biotransformation [7] | Bacterial Biotransformation [8] | Bacterial Biotransformation [9] | Bacterial Biotransformation [10] | Bacterial Biotransformation [11] | Bacterial Biotransformation [12] | Bacterial Biotransformation [13] | Bacterial Biotransformation [14] | Bacterial Biotransformation [15] | Bacterial Biotransformation [16] | Bacterial Biotransformation [17] | Bacterial Biotransformation [18] | Bacterial Biotransformation [19] | Bacterial Biotransformation [20] |
| --- | --- | --- | --- | --- | --- | --- | --- | --- | --- | --- | --- | --- | --- | --- | --- | --- | --- | --- | --- | --- |
| CC(C)c1c(CN(C)C(C)Cc2ccccc2)n(C)n(-c2ccccc2)c1=O (stereo not given) [FAMPROFAZONE] | Compound metabolized | Compound metabolized | Compound metabolized | Compound metabolized | Compound metabolized | Compound metabolized | Compound metabolized | Compound metabolized | Compound metabolized | Compound metabolized | Compound metabolized | Compound metabolized | Compound metabolized | Compound metabolized | Compound metabolized | Compound metabolized | Compound metabolized | Compound NOT metabolized | Compound metabolized | Compound metabolized |
